Experimental data published in ChEMBL document CHEMBL1201862, “PubChem BioAssay data set” (2004).
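Growth conditions: 96-well plates. Treatment: test compound, 48 hours, 5 concentrations. Analysis: linear interpolation between bracketing concentrations; unreached endpoints set to highest concentration. GI50 marks 50% less growth.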 Calls of active or inactive are those of the source. No stated cut-off is given here; in the data, active = GI50 up to about 1.1 µM and inactive = higher.

What was measured:
Test in all cases: NCI anticancer screen, dose series, 48 h
K562 = tested on: K562
U-251 = tested on: U-251
SN12C = tested on: SN12C
NCI-H226 = tested on: NCI-H226
HCT-116 = tested on: HCT-116
OVCAR-5 = tested on: OVCAR-5
SF-268 = tested on: SF-268
HCT-15 = tested on: HCT-15
RPMI-8226 = tested on: RPMI-8226
SK-MEL-5 = tested on: SK-MEL-5
HT-29 = tested on: HT-29
EKVX = tested on: EKVX
A549 = tested on: A549
CAKI-1 = tested on: CAKI-1
OVCAR-8 = tested on: OVCAR-8
SW-620 = tested on: SW-620
Malme-3M = tested on: Malme-3M
NCI-H23 = tested on: NCI-H23
UO-31 = tested on: UO-31
HOP-62 = tested on: HOP-62

Structure (SMILES) | GI50 (K562) | GI50 (U-251) | GI50 (SN12C) | GI50 (NCI-H226) | GI50 (HCT-116) | GI50 (OVCAR-5) | GI50 (SF-268) | GI50 (HCT-15) [µM] | GI50 (RPMI-8226) | GI50 (SK-MEL-5) | GI50 (HT-29) | GI50 (EKVX) | GI50 (A549) | GI50 (CAKI-1) | GI50 (OVCAR-8) | GI50 (SW-620) | GI50 (Malme-3M) | GI50 (NCI-H23) | GI50 (UO-31) | GI50 (HOP-62)
Cc1c2ccncc2cc2c1[nH]c1ccccc12 | 3.48 µM (inactive) | 2.86 µM (inactive) | 1.58 µM (inactive) | 6.14 µM (inactive) | 2.44 µM (inactive) | 4.34 µM (inactive) | 8.22 µM (inactive) | 4.2 | 3.07 µM (inactive) | 3.97 µM (inactive) | 4.42 µM (inactive) | 4.4 µM (inactive) | 3.22 µM (inactive) | 3.88 µM (inactive) | 3.44 µM (inactive) | 2.42 µM (inactive) | 7.05 µM (inactive) | 4.08 µM (inactive) | 3.45 µM (inactive) | 8.71 µM (inactive)
c1ccc(CSC(SCc2ccccc2)c2cccc3ccccc23)cc1 | > 10 µM (inactive) | > 10 µM (inactive) | > 10 µM (inactive) | > 10 µM (inactive) | > 10 µM (inactive) | > 10 µM (inactive) | > 10 µM (inactive) | > 10 | 9.79 µM (inactive) | > 10 µM (inactive) | > 10 µM (inactive) | > 10 µM (inactive) | > 10 µM (inactive) | > 10 µM (inactive) | > 10 µM (inactive) | > 10 µM (inactive) | > 10 µM (inactive) | 3.82 µM (inactive) | > 10 µM (inactive) | > 10 µM (inactive)
COC1OC(=O)[C@H]2O[N+]([O-])=C(C)[C@@H]12 (stereo not given in full) | > 100 µM (inactive) | > 100 µM (inactive) | > 100 µM (inactive) | > 73.5 µM (inactive) | > 100 µM (inactive) | > 100 µM (inactive) | > 100 µM (inactive) | > 100 | > 100 µM (inactive) | > 100 µM (inactive) | > 100 µM (inactive) | > 100 µM (inactive) | > 100 µM (inactive) | > 100 µM (inactive) | > 100 µM (inactive) | > 100 µM (inactive) | > 100 µM (inactive) | > 100 µM (inactive) | > 100 µM (inactive) | > 100 µM (inactive)
Cc1cc(N(CCC#N)S(=O)(=O)c2ccccc2)ccc1/C=N\c1cccc(C(=O)O)c1 | 71 µM (inactive) | > 100 µM (inactive) | > 100 µM (inactive) | > 100 µM (inactive) | > 100 µM (inactive) | > 100 µM (inactive) | 60.1 µM (inactive) | > 100 | > 100 µM (inactive) | 83.6 µM (inactive) | > 100 µM (inactive) | > 100 µM (inactive) | > 100 µM (inactive) | > 100 µM (inactive) | > 100 µM (inactive) | > 100 µM (inactive) | > 100 µM (inactive) | > 100 µM (inactive) | 53.3 µM (inactive) | > 100 µM (inactive)
CCOC(=O)CSc1c(C(=O)OCC)c(=O)n(-c2ccccc2)c(=S)n1-c1ccccc1 | 7.53 µM (inactive) | 13.3 µM (inactive) | 29.6 µM (inactive) | 36.5 µM (inactive) | 45.7 µM (inactive) | > 100 µM (inactive) | > 100 µM (inactive) | 21.5 | 37.5 µM (inactive) | 23.5 µM (inactive) | 54.3 µM (inactive) | 62.8 µM (inactive) | 32.1 µM (inactive) | > 100 µM (inactive) | 41 µM (inactive) | 9.42 µM (inactive) | > 100 µM (inactive) | 22.7 µM (inactive) | 26.9 µM (inactive) | > 100 µM (inactive)
O=c1c2c3c(sc2nc(CN2CCNCC2)n1-c1ccccc1)CCCC3 | > 100 µM (inactive) | > 100 µM (inactive) | > 100 µM (inactive) | > 100 µM (inactive) | 53.3 µM (inactive) | > 100 µM (inactive) | 65.5 µM (inactive) | > 100 | > 100 µM (inactive) | > 100 µM (inactive) | 35.9 µM (inactive) | > 100 µM (inactive) | > 100 µM (inactive) | 90.8 µM (inactive) | > 100 µM (inactive) | > 100 µM (inactive) | > 100 µM (inactive) | > 100 µM (inactive) | 54.2 µM (inactive) | > 100 µM (inactive)
CC(=O)OCC1OC(n2c(-c3ccc(Cl)cc3)cc(-c3ccccc3)c(C#N)c2=S)C(OC(C)=O)C(OC(C)=O)C1OC(C)=O (stereo not given) | 3.66 µM (inactive) | 8.67 µM (inactive) | 11.2 µM (inactive) | 4.28 µM (inactive) | 6.11 µM (inactive) | 19.6 µM (inactive) | 10.8 µM (inactive) | 29.9 | 8.91 µM (inactive) | 11.4 µM (inactive) | 7.06 µM (inactive) | 17.7 µM (inactive) | 14.5 µM (inactive) | 13.9 µM (inactive) | 10 µM (inactive) | 3.3 µM (inactive) | 2.87 µM (inactive) | 14.2 µM (inactive) | 23.5 µM (inactive) | 7.85 µM (inactive)
NC1CCCCC1.O=P(O)(O)C(CSc1ccccc1)P(=O)(O)O | > 100 µM (inactive) | > 100 µM (inactive) | > 100 µM (inactive) | > 100 µM (inactive) | > 100 µM (inactive) | > 100 µM (inactive) | > 100 µM (inactive) | > 100 | > 100 µM (inactive) | > 100 µM (inactive) | > 100 µM (inactive) | > 100 µM (inactive) | > 100 µM (inactive) | > 100 µM (inactive) | > 100 µM (inactive) | > 100 µM (inactive) | > 100 µM (inactive) | > 100 µM (inactive) | > 100 µM (inactive) | > 100 µM (inactive)
CN(C)c1n/c(=N/c2ccc(/N=c3\nc(N(C)C)ss3)cc2)ss1 | 11.7 µM (inactive) | 29.9 µM (inactive) | 40.3 µM (inactive) | 56.5 µM (inactive) | 15.1 µM (inactive) | > 100 µM (inactive) | 37.9 µM (inactive) | 27 | 9.68 µM (inactive) | 22.4 µM (inactive) | 21.9 µM (inactive) | > 74.8 µM (inactive) | 37.9 µM (inactive) | > 44.3 µM (inactive) | 16.7 µM (inactive) | > 40.7 µM (inactive) | 22.5 µM (inactive) | 12.4 µM (inactive) | 44 µM (inactive) | > 100 µM (inactive)
COc1ccc(C2COc3cc(O)c(O)cc3C2)cc1 (stereo not given) | 9.08 µM (inactive) | 13.7 µM (inactive) | 30.1 µM (inactive) | 39.6 µM (inactive) | 11.3 µM (inactive) | 148 µM (inactive) | 14.8 µM (inactive) | 10.2 | 7.45 µM (inactive) | 24.4 µM (inactive) | 40.7 µM (inactive) | 14.1 µM (inactive) | 48.8 µM (inactive) | 13.7 µM (inactive) | 13.3 µM (inactive) | 9.06 µM (inactive) | 15.3 µM (inactive) | 17.7 µM (inactive) | 56.2 µM (inactive) | 76.4 µM (inactive)
C=CCNC(=S)N/N=C1\C(=O)Nc2ccc([N+](=O)[O-])cc21 | 32.1 µM (inactive) | 64.3 µM (inactive) | 35.5 µM (inactive) | > 100 µM (inactive) | 24.8 µM (inactive) | > 100 µM (inactive) | 57 µM (inactive) | 7.57 | 57.3 µM (inactive) | 30.1 µM (inactive) | 68.7 µM (inactive) | 42.2 µM (inactive) | 34.2 µM (inactive) | 14.2 µM (inactive) | 50.5 µM (inactive) | 82 µM (inactive) | > 100 µM (inactive) | 38.6 µM (inactive) | 31.2 µM (inactive) | > 100 µM (inactive)
CC1(C)CCc2c(ccc(C(=O)/C=C/c3ccc(O)cc3)c2O)O1 [DORSMANNIN A] | 27.8 µM (inactive) | 10.4 µM (inactive) | 10.9 µM (inactive) | 11.3 µM (inactive) | 10.3 µM (inactive) | 11.6 µM (inactive) | 12.9 µM (inactive) | 10.8 | 8.39 µM (inactive) | 11.2 µM (inactive) | 11.9 µM (inactive) | 0.142 µM (active) | 11.9 µM (inactive) | 5.28 µM (inactive) | 12 µM (inactive) | 13 µM (inactive) | 7.59 µM (inactive) | 12.5 µM (inactive) | 12.3 µM (inactive) | 9.91 µM (inactive)
